Broadly, the IC50 is the point on the concentration scale where inhibition reaches its midpoint.

Data on three compounds can be found in PMC4942611, “Promising Tools in Prostate Cancer Research: Selective Non-Steroidal Cytochrome P450 17A1 Inhibitors” (Scientific Reports, 2016).

One data set deals with H295R cell line. The data set is described as follows: H295R steroid hormone synthesis assay, production of steroidal hormones. It is filed as cell-based, human. The conditions noted are these: for IC50: Homo sapiens, NCI-H295R. The protocol:
(§1) The H295R steroid hormone synthesis assay was performed according to the OECD validation guideline. Cells were cultured in DMEM/F12 media supplemented with 1% ITS-premix and 2.5% Nu-serum at 37 °C with a 5% CO2 atmosphere. The cells were only used for experiments between passage […]. During exposure experiments, cells were grown in 24 well plates with a density of 3 × 10^5 cells/mL. […] To avoid interference from low levels of steroid hormones present in the Nu-serum, the exposure experiment was conducted with serum-free media. Each compound was tested at a minimum of seven concentration levels using three or more replicates and the experiment was repeated on two different days (n = 6–15). On each test plate a solvent control (SC) (medium with 0.1% DMSO) was included in triplicate and the maximal concentration of DMSO in the cell medium was 0.1%[49]. After 48 hours of incubation in presence of the test compounds, 950 μL of the medium was carefully removed and internal standards (50 μl of 0.1 μg/μl solution containing deuterated steroid analogues) were added. Samples were stored at −20 °C for later analysis.
Steroid extraction and clean-up were performed by double protein precipitation. First, 900 μL of cold acetonitrile were added to the samples, which were then vortexed and centrifuged at ~9500 × g for 10 minutes. Second, 900 μL cold methanol was added to the supernatant and the mixture was vortexed and centrifuged at 1500 × g for 10 minutes. Finally, the supernatant was collected and concentrated to ~1 mL under a gentle stream of nitrogen at 60 °C.
For on-line solid phase extraction (SPE) of steroids, a total of 100 μL was injected on a binary 1290 Agilent Infinity Series system and a binary 1100 Agilent HPLC pump were used in combination (Agilent Technologies, Palo Alto, CA, USA). For online clean-up, a C18 enrichment column (μbondapak® C18, 3.9 × 20 mm, 10 μm, Waters) was used. The enrichment column was connected to the autosampler through the TTC switching valve (two positions, 6 ports). Between the autosampler and the TTC switching valve a 0.3 μm in-line filter (1290 infinity in-line filter, Agilent) was installed. Separation of steroid hormones was performed using a C18 analytical column (Kinetex, 2.6 μm C18 100 Å, 75 × 2.1 mm, Phenomenex, USA). An isocratic flow of 1 mL/min H2O:methanol:formic acid at 90:10:0.1 (v/v/v) was generated by the 1100 pump which was connected to the autosampler. The 1290 pump performed a gradient elution with a flow rate of 0.3 mL which was connected to the TTC switching valve. Mobile phase A and B were composed of H2O with 0.1% formic acid (v/v) and pure methanol, respectively. The elution gradient was maintained at 10% B for the first 2 min, changed to 10.0–30.0% from 2.0 to 2.2 min, 30.0–60.0% from 2.2 to 8.0 min, maintained at 60.0% from 8.0 to 10.0 min, increased to 60.0–85.0% from 10.0 to 12.30 min, 85.0–99.5% from 12.3 to 12.5 min and held at 99.5% from 12.5 to 14.8 min, before re-equilibrating the column until 16 minutes.
For detection, an AB SCIEX 4500 QTRAP mass spectrometer (Applied Biosystems, Foster City, CA, USA) equipped with an atmospheric pressure chemical ionization (APCI) Turbo V source was used. Multiple reaction monitoring (MRM) was performed in positive mode during the analysis with a targeted scan time of 0.8 sec. Nitrogen was applied as curtain, collision, and ion source gases.

The target in a further data set is T1, CYP21A2 (Homo sapiens, UniProt P08686).
T1 sequence (P08686 1-495): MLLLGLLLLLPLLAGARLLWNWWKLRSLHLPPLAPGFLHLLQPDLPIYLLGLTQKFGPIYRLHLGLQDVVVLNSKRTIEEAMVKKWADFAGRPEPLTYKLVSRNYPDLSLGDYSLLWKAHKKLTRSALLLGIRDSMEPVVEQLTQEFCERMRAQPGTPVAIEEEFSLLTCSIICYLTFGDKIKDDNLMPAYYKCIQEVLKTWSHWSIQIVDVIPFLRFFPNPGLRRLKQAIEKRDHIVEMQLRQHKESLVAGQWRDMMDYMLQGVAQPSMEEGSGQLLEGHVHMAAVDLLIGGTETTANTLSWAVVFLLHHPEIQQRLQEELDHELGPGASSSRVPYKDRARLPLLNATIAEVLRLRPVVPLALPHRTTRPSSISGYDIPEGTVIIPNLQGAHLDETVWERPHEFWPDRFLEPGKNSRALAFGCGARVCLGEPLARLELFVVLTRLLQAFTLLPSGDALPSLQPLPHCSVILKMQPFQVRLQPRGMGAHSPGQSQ
The data set is described as follows: H295R cell assay, CYP21A2 activity. It is filed as cell-based. The conditions noted are these: H295R cells. The protocol:
(§2) This cellular assay was also used to evaluate inhibitor selectivity.
as §1

Data set [1] is described as follows: Precipitation of compound in H295R exposure medium. It is filed as physicochemical. The conditions noted are these: H295R assay medium, 0.1% DMSO. As for the experimental part: as §2, §1
A further data set has as its system H295R cells. The experiment in a line: Cell viability, resazurin assay. It is filed as cell-based, human. From the text: Cell viability was confirmed with the resazurin assay, as described by Nielsen et al.[50].
(The colour change of resazurin is a common sign of viable cells or microbes.)

Setting [2] is: H295R, progestagens, EC200 ± standard error.
Setting [3] is: H295R, androgens, read-out: AN IC50.
Where [4] appears, read: H295R, androgens, read-out: DHEA IC50.
Where [5] appears, read: H295R, androgens, read-out: TS IC50.
The mark [6] stands for this setting: H295R, corticosteroids, read-out: 11deoxy-COR IC50.
Setting [7] is: H295R, corticosteroids, read-out: 11deoxy-COS IC50.
Setting [8] is: H295R, corticosteroids, read-out: COR IC50.
[9] abbreviates: H295R, corticosteroids, read-out: CORNE IC50.
Setting [10] is: H295R, estrogens, read-out: E1 IC50.
[11] abbreviates: H295R, estrogens, read-out: E-E2 IC50.
Where [12] appears, read: H295R, progestagens, mean over 6 to 15 measurements ± standard error, read-out: PREG IC50.
The mark [13] stands for this setting: H295R, progestagens, read-out: 17OH-PREG IC50.
[14] abbreviates: H295R, progestagens, read-out: 17OH-PROG IC50.

Read-outs that look alike come from different tables or passages of the source.

Consider `Cc1ccc(-c2csc(-c3cccnc3)n2)c(C)c1` [Compound 1], for which, in the data set with H295R cell line (H295R cells), the “Effect on the CYP17A1 substrates pregnenolone and progesterone” value is “dose-dependent increases”. Further, the “PREG EC200” value with H295R cell line (setting [2]) was 500 ± 70 nM. In addition, in the data set with H295R cell line (setting [2]), the “PROG EC200” value is 146 ± 7 nM. Also, the “11deoxy-COS EC200” value with H295R cell line (H295R, EC200 ± standard error) was 146 ± 4 nM. Moreover, in the data set on H295R cell line (H295R, EC200 ± standard error), the “COS EC200” value came to 56 ± 1 nM. In addition, the IC50 in the data set on H295R cell line (H295R cells, read-out: IC50 values for progestagens and corticosteroids (range)) is 300 to 1200 nM; in the data set on H295R cell line (setting [3]) it was 68 ± 2 nM; in the data set on H295R cell line (setting [4]), 94 ± 30 nM; in the data set on H295R cell line (setting [5]), 52 ± 2 nM; with H295R cell line (setting [6]), 480 ± 10 nM; in the data set on H295R cell line (setting [7]), 310 ± 60 nM. Also, the IC50 amounted to 1200 ± 100 nM with H295R cell line (setting [8]); 700 ± 100 nM with H295R cell line (setting [9]); 220 ± 10 nM with H295R cell line (setting [10]); 235 ± 6 nM in the data set with H295R cell line (setting [11]); 390 ± 70 nM in the data set on H295R cell line (setting [12]); 830 ± 80 nM with H295R cell line (setting [13]). In addition, in the data set on H295R cell line (setting [14]), the IC50 came out at 800 ± 200 nM. Further, the “Inhibitor concentrations at which CYP21A2 is inhibited” value (“Inhibitor concentrations” below) at CYP21A2 is “greater than 1000 nM”. Moreover, in data set [1], the “Concentration at which precipitation was observed” value is “around 10 μM”.
In the case of `CCCn1nnc2cc(-c3cc(-c4ccncc4)c(C#N)c(N)n3)ccc21` [Compound 2], the “Effect on the CYP17A1 substrates pregnenolone and progesterone” value in the data set on H295R cell line (H295R cells) is recorded as “dose-dependent increases”. Also, the “PREG EC200” value in the data set with H295R cell line (setting [2]) was determined as 19 ± 4 nM. In addition, in the data set on H295R cell line (setting [2]), the “PROG EC200” value was 32 ± 4 nM. The IC50 was 4.3 ± 0.1 nM in the data set with H295R cell line (setting [3]); 7.4 ± 0.1 nM with H295R cell line (setting [4]); 3.3 ± 0.2 nM in the data set on H295R cell line (setting [5]); 54 ± 5 nM in the data set with H295R cell line (setting [6]); 23.8 ± 0.9 nM in the data set with H295R cell line (setting [7]); 36 ± 4 nM in the data set with H295R cell line (setting [8]). Moreover, the IC50 in the data set on H295R cell line (setting [9]) came out at 23 ± 1 nM; with H295R cell line (H295R, corticosteroids, read-out: COS IC50), 36 ± 4 nM; with H295R cell line (setting [10]) it was 19 ± 3 nM; with H295R cell line (setting [11]) it was 50 ± 10 nM; in the data set on H295R cell line (setting [12]), 15 ± 3 nM; in the data set with H295R cell line (setting [13]), 52 ± 4 nM. In addition, the IC50 in the data set with H295R cell line (setting [14]) amounted to 20 ± 1 nM. Also, the “Inhibitor concentrations” value at CYP21A2 is recorded as “above 1000 nM”. In addition, the “Concentration at which precipitation was observed” value in data set [1] stood at 60 µM.
For the compound `C[C@]12CC[C@H](O)CC1=CC[C@@H]1[C@@H]2CC[C@]2(C)C(c3cccnc3)=CC[C@@H]12` [abiraterone, reference compound], the “PREG EC200” value with H295R cell line (setting [2]) is 7.3 ± 0.3 nM. Also, in the data set with H295R cell line (setting [2]), the “PROG EC200” value was found to be 1.0 ± 0.1 nM. Besides, the IC50 in the data set with H295R cell line (setting [3]) came to 0.5 nM; in the data set with H295R cell line (setting [4]), 1.8 ± 0.1 nM; in the data set on H295R cell line (setting [5]) it was 0.2 nM; with H295R cell line (setting [6]) it was 5.3 ± 0.1 nM; with H295R cell line (setting [8]) it was 5 ± 0.4 nM; in the data set on H295R cell line (setting [9]) it was 2.5 ± 0.1 nM. Besides, the concentration for half-maximal inhibition (IC50) was found to be 0.8 ± 0.1 nM in the data set with H295R cell line (setting [10]); 408 ± 60 nM with H295R cell line (setting [11]); 5.9 ± 0.5 nM with H295R cell line (setting [12]); 181 ± 5 nM in the data set with H295R cell line (H295R, progestagens, mean over 6 to 15 measurements ± standard error, read-out: PROG IC50); 9.7 ± 0.3 nM in the data set on H295R cell line (setting [13]); 6.3 ± 0.2 nM in the data set on H295R cell line (setting [14]). For the same compound, the IC50 is 2.6 ± 0.5 nM in the data set on H295R cell line (H295R, calculated on low concentrations of abiraterone (first part of the Gaussian-like curve), read-out: 11deoxy-COS IC50); 2.9 ± 0.5 nM in the data set on H295R cell line (H295R, calculated on low concentrations of abiraterone (first part of the Gaussian-like curve), read-out: COS IC50); 240 ± 20 nM in the data set on H295R cell line (H295R, calculated using high concentrations of abiraterone (second part of the Gaussian-like curve), read-out: 11deoxy-COS IC50). Further, at CYP21A2, the “Inhibitor concentrations” value fell in the range of 30 to 3000 nM. For the same compound, the “Concentration at which cells were not viable” value in the data set on H295R cells is 10 µM.
